Assay results: PubChem BioAssay (NCI)
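Results reflect a 48-hour exposure of cells in 96-well plates to compound at five concentrations. GI50 is the concentration that inhibits growth by half. TGI denotes the concentration required for complete inhibition of growth.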

What was measured:
Experiment in all cases: NCI anticancer screen, dose series, 48 h
786-0 renal = test system: 786-0 renal
A498 renal = test system: A498 renal
A549 NSCLC = test system: A549 NSCLC
ACHN renal = test system: ACHN renal
BT-549 breast = test system: BT-549 breast
CAKI-1 renal = test system: CAKI-1 renal
CCRF-CEM leukemia = test system: CCRF-CEM leukemia
COLO 205 colon = test system: COLO 205 colon
DU-145 prostate = test system: DU-145 prostate
EKVX NSCLC = test system: EKVX NSCLC
HCC-2998 colon = test system: HCC-2998 colon
HCT-116 colon = test system: HCT-116 colon
HCT-15 colon = test system: HCT-15 colon
HL-60(TB) leukemia = test system: HL-60(TB) leukemia
HOP-62 NSCLC = test system: HOP-62 NSCLC
HOP-92 NSCLC = test system: HOP-92 NSCLC
HS 578T breast = test system: HS 578T breast
HT29 colon = test system: HT29 colon
IGROV1 ovarian = test system: IGROV1 ovarian
K-562 leukemia = test system: K-562 leukemia
KM12 colon = test system: KM12 colon
LOX IMVI melanoma = test system: LOX IMVI melanoma
M14 melanoma = test system: M14 melanoma
MALME-3M melanoma = test system: MALME-3M melanoma
MCF7 breast = test system: MCF7 breast
MDA-MB-231 breast = test system: MDA-MB-231 breast
MDA-MB-435 = test system: MDA-MB-435
MDA-MB-468 breast = test system: MDA-MB-468 breast
MOLT-4 leukemia = test system: MOLT-4 leukemia
NCI-H226 lung = test system: NCI-H226 lung
NCI-H23 lung = test system: NCI-H23 lung
NCI-H460 lung = test system: NCI-H460 lung
NCI-H522 lung = test system: NCI-H522 lung
NCI/ADR-RES ovarian = test system: NCI/ADR-RES ovarian
OVCAR-3 ovarian = test system: OVCAR-3 ovarian
OVCAR-4 ovarian = test system: OVCAR-4 ovarian
OVCAR-5 ovarian = test system: OVCAR-5 ovarian
OVCAR-8 ovarian = test system: OVCAR-8 ovarian
PC-3 prostate = test system: PC-3 prostate
RPMI-8226 leukemia = test system: RPMI-8226 leukemia
RXF 393 renal = test system: RXF 393 renal
SF-268 CNS = test system: SF-268 CNS
SF-295 CNS = test system: SF-295 CNS
SF-539 CNS = test system: SF-539 CNS
SK-MEL-2 melanoma = test system: SK-MEL-2 melanoma
SK-MEL-28 melanoma = test system: SK-MEL-28 melanoma
SK-MEL-5 melanoma = test system: SK-MEL-5 melanoma
SK-OV-3 ovarian = test system: SK-OV-3 ovarian
SN12C renal = test system: SN12C renal
SNB-19 CNS = test system: SNB-19 CNS
SNB-75 CNS = test system: SNB-75 CNS
SR leukemia = test system: SR leukemia
SW-620 colon = test system: SW-620 colon
TK-10 renal = test system: TK-10 renal
U251 CNS = test system: U251 CNS
UACC-257 melanoma = test system: UACC-257 melanoma
UACC-62 melanoma = test system: UACC-62 melanoma
UO-31 renal = test system: UO-31 renal

SMILES: Oc1ccc(F)c(Nc2nc(SCCN3CCOCC3)nc3c2cnn3CC(Cl)c2ccc(Br)cc2)c1 (stereo unspecified)
- GI50 (786-0 renal): 5.02 µM
- TGI (786-0 renal): 75.2 µM
- GI50 (A498 renal): 14.5 µM
- TGI (A498 renal): 45 µM
- GI50 (A549 NSCLC): 4.06 µM
- TGI (A549 NSCLC): > 100 µM
- GI50 (ACHN renal): 3.48 µM
- TGI (ACHN renal): 45.1 µM
- GI50 (BT-549 breast): 7.46 µM
- TGI (BT-549 breast): 22.7 µM
- GI50 (CAKI-1 renal): 9.49 µM
- TGI (CAKI-1 renal): > 100 µM
- GI50 (CCRF-CEM leukemia): 3.67 µM
- TGI (CCRF-CEM leukemia): 54 µM
- GI50 (COLO 205 colon): 17 µM
- TGI (COLO 205 colon): 34.7 µM
- GI50 (DU-145 prostate): 8.03 µM
- TGI (DU-145 prostate): > 100 µM
- GI50 (EKVX NSCLC): 4.44 µM
- TGI (EKVX NSCLC): > 100 µM
- GI50 (HCC-2998 colon): 3.64 µM
- TGI (HCC-2998 colon): 15.4 µM
- GI50 (HCT-116 colon): 3.29 µM
- TGI (HCT-116 colon): 16.2 µM
- GI50 (HCT-15 colon): 2720 nM
- TGI (HCT-15 colon): 20.5 µM
- GI50 (HL-60(TB) leukemia): 3.42 µM
- TGI (HL-60(TB) leukemia): 33.6 µM
- GI50 (HOP-62 NSCLC): 5.08 µM
- TGI (HOP-62 NSCLC): 39 µM
- GI50 (HOP-92 NSCLC): 4.53 µM
- TGI (HOP-92 NSCLC): > 100 µM
- GI50 (HS 578T breast): 2000 nM
- TGI (HS 578T breast): 8.19 µM
- GI50 (HT29 colon): 3.33 µM
- TGI (HT29 colon): 12.8 µM
- GI50 (IGROV1 ovarian): 3.7 µM
- TGI (IGROV1 ovarian): 22.7 µM
- GI50 (K-562 leukemia): 1690 nM
- TGI (K-562 leukemia): 14.5 µM
- GI50 (KM12 colon): 5.22 µM
- TGI (KM12 colon): > 100 µM
- GI50 (LOX IMVI melanoma): 2560 nM
- TGI (LOX IMVI melanoma): 10.5 µM
- GI50 (M14 melanoma): 4.18 µM
- TGI (M14 melanoma): 16.4 µM
- GI50 (MALME-3M melanoma): 2860 nM
- TGI (MALME-3M melanoma): 11.5 µM
- GI50 (MCF7 breast): 2870 nM
- TGI (MCF7 breast): 40.2 µM
- GI50 (MDA-MB-231 breast): 2800 nM
- TGI (MDA-MB-231 breast): 9.68 µM
- GI50 (MDA-MB-435): 6.74 µM
- TGI (MDA-MB-435): 24.3 µM
- GI50 (MDA-MB-468 breast): 2440 nM
- TGI (MDA-MB-468 breast): 9.54 µM
- GI50 (MOLT-4 leukemia): 2830 nM
- TGI (MOLT-4 leukemia): 14.6 µM
- GI50 (NCI-H226 lung): 3.82 µM
- TGI (NCI-H226 lung): 43.7 µM
- GI50 (NCI-H23 lung): 4.74 µM
- TGI (NCI-H23 lung): 18.1 µM
- GI50 (NCI-H460 lung): 4.38 µM
- TGI (NCI-H460 lung): 65.4 µM
- GI50 (NCI-H522 lung): 4.6 µM
- TGI (NCI-H522 lung): 27.9 µM
- GI50 (NCI/ADR-RES ovarian): 3.35 µM
- TGI (NCI/ADR-RES ovarian): 29.1 µM
- GI50 (OVCAR-3 ovarian): 8.88 µM
- TGI (OVCAR-3 ovarian): > 100 µM
- GI50 (OVCAR-4 ovarian): 6.92 µM
- TGI (OVCAR-4 ovarian): > 100 µM
- GI50 (OVCAR-5 ovarian): 6.62 µM
- TGI (OVCAR-5 ovarian): 39.5 µM
- GI50 (OVCAR-8 ovarian): 4.27 µM
- TGI (OVCAR-8 ovarian): 56.5 µM
- GI50 (PC-3 prostate): 4.51 µM
- TGI (PC-3 prostate): > 100 µM
- GI50 (RPMI-8226 leukemia): 4.31 µM
- TGI (RPMI-8226 leukemia): 25.7 µM
- GI50 (RXF 393 renal): 1360 nM
- TGI (RXF 393 renal): 4.34 µM
- GI50 (SF-268 CNS): 6.23 µM
- TGI (SF-268 CNS): > 100 µM
- GI50 (SF-295 CNS): 2660 nM
- TGI (SF-295 CNS): 11.1 µM
- GI50 (SF-539 CNS): 4.33 µM
- TGI (SF-539 CNS): 16.3 µM
- GI50 (SK-MEL-2 melanoma): 10.2 µM
- TGI (SK-MEL-2 melanoma): 22.4 µM
- GI50 (SK-MEL-28 melanoma): 4.44 µM
- TGI (SK-MEL-28 melanoma): 24.3 µM
- GI50 (SK-MEL-5 melanoma): 4.05 µM
- TGI (SK-MEL-5 melanoma): 15.7 µM
- GI50 (SK-OV-3 ovarian): 11 µM
- TGI (SK-OV-3 ovarian): 84.6 µM
- GI50 (SN12C renal): 3.37 µM
- TGI (SN12C renal): 24.9 µM
- GI50 (SNB-19 CNS): 9.02 µM
- TGI (SNB-19 CNS): > 100 µM
- GI50 (SNB-75 CNS): 3.23 µM
- TGI (SNB-75 CNS): 22.3 µM
- GI50 (SR leukemia): 1610 nM
- TGI (SR leukemia): > 100 µM
- GI50 (SW-620 colon): 7.38 µM
- TGI (SW-620 colon): > 100 µM
- GI50 (TK-10 renal): 21.1 µM
- TGI (TK-10 renal): 62.5 µM
- GI50 (U251 CNS): 5.19 µM
- TGI (U251 CNS): 18.5 µM
- GI50 (UACC-257 melanoma): 5.48 µM
- TGI (UACC-257 melanoma): 23 µM
- GI50 (UACC-62 melanoma): 3.98 µM
- TGI (UACC-62 melanoma): 15.6 µM
- GI50 (UO-31 renal): 3.15 µM
- TGI (UO-31 renal): 55 µM
